Source: ChEMBL document CHEMBL1201862, “PubChem BioAssay data set” (2004)
Active and inactive are the calls of the source. Cut-off read from the data, not from the text of the source: actives have a measured IC50 and inactives only a lower limit.

Molecular target: Envelope glycoprotein gp160 (Human immunodeficiency virus 1, UniProt Q6QLK5)
Experiment: cell-free HIV fusion peptide-binding blockers – biochemical, uHTS, fluorescence dequenching, […] (AID 1986)

Sequence of Envelope glycoprotein gp160 (Q6QLK5 whole entry, the tested form may be a part): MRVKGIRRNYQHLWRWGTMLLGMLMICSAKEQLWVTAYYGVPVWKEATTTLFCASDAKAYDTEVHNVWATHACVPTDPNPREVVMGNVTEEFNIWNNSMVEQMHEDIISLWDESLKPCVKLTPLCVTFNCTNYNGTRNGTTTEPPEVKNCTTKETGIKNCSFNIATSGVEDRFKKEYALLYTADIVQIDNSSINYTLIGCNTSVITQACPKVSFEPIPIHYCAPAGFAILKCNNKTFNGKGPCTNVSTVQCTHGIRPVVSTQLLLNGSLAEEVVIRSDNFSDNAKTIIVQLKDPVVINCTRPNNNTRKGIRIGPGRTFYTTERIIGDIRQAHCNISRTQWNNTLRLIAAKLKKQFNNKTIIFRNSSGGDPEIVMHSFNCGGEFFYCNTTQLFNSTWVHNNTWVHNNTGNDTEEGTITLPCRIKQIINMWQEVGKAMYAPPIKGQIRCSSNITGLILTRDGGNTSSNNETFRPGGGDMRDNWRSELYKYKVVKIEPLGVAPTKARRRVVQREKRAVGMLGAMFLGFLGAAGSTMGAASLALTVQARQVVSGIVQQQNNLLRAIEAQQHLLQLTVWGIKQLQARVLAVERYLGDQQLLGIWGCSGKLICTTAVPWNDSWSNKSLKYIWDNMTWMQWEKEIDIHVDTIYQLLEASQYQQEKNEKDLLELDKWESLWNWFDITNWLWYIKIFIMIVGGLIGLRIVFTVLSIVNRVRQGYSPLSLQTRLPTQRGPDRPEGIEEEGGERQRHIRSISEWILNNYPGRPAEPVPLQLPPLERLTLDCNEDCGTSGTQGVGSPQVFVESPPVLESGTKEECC

Row | Structure (SMILES) | IC50
1 | O=C(CSc1nc2ccccc2c(=O)n1Cc1ccccc1)Nc1ccc(Br)cc1C(=O)O | 14.4 µM (active)
2 | Cc1ccc(F)c(NC(=O)/C(C#N)=C(\O)c2ccc(C(C)(C)C)cc2)c1 | 19.6 µM (active)
3 | O=c1/c(=C\c2cc([N+](=O)[O-])cc([N+](=O)[O-])c2O)sc2nc3ccccc3n12 | 6.01 µM (active)
